One experiment concerns the target T1, ERO1-like protein alpha (Homo sapiens, UniProt Q96HE7).
T1 sequence (Q96HE7 whole entry): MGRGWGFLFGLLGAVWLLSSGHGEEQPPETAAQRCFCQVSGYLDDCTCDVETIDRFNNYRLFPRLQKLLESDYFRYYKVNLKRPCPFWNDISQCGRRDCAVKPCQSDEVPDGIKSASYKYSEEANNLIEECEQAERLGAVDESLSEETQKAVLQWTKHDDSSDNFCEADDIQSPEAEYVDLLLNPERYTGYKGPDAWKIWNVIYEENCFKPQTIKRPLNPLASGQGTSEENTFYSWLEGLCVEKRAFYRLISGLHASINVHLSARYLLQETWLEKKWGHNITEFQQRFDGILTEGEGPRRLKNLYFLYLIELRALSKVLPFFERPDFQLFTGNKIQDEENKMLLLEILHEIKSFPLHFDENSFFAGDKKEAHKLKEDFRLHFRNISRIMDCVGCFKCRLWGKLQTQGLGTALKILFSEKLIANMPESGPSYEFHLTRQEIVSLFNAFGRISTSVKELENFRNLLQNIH
As to the kind of experiment: Inhibition of human Ero1-Lalpha.

Experiment [1] is described as follows: Inhibition of yeast Ero1p by fluorescence assay. Also noted: species or system Saccharomyces cerevisiae.

Each structure is given as a SMILES string.

Regarding `COc1cc(/C=C2\C(=O)NN(c3ccc(Br)cc3)C2=O)cc(Br)c1OC(C)=O`, the IC50 at ERO1-like protein alpha came out at 3 µM; in experiment [1], 31 µM.
For the compound `COc1cc(Cl)cc(/C=C2\C(=O)NN(c3ccc(F)c(Cl)c3)C2=O)c1O`, the 50% inhibitory concentration (IC50) on ERO1-like protein alpha turned out to be 38 µM. That is a double-digit micromolar value.
As to `COc1ccc(/C=C2/C(=O)N(c3ccc(Cl)cc3)N=C2C(F)(F)F)cc1OC`, the IC50 is 8 µM on ERO1-like protein alpha and 73 µM in experiment [1].
With `COc1cc(/C=C2/N=C(c3ccc4ccccc4c3)OC2=O)ccc1OC(C)=O`, at ERO1-like protein alpha, the IC50 came out at 54 µM.
Regarding `O=C(Nc1sc(-c2ccccc2)cc1C(=O)O)c1ccc(Br)cc1`, on ERO1-like protein alpha, the IC50 is 67 µM. The IC50 values of the last two compounds are within 1.5-fold of each other.
At ERO1-like protein alpha, `O=C(N/N=C1\C(=O)N(Cc2cccc([N+](=O)[O-])c2)c2ccccc21)c1cc2ccccc2cc1O` returned an IC50 of 108 µM. This IC50 lies about 1.6-fold higher than the previous one.
In the case of `O=C(Cn1cnc([N+](=O)[O-])c1[N+](=O)[O-])Nc1cc(Oc2ccccc2)cc([N+](=O)[O-])c1`, the figures for the IC50 (against ERO1-like protein alpha; in experiment [1]) were 10 µM and more than 300 µM, respectively.
Compound `O=C(Nc1cc2c(cc1C(=O)O)C(=O)c1ccccc1C2=O)c1ccc([N+](=O)[O-])cc1` displayed an IC50 on ERO1-like protein alpha of 37 µM. In other words, the double-digit micromolar range.
On the same count and under the same terms, the value for `O=C1NC(=O)N(c2ccc(Cl)cc2)C(=O)/C1=C/c1ccc(O)c(O)c1` was 11 µM; that for `CCOc1cc(/C=C2\C(=O)NC(=O)N(c3ccc(C)cc3)C2=O)ccc1OCCOc1cccc2ccccc12` was 17 µM.
The same measure, in the same setting: next, `COc1ccc(N2C(=O)NC(=O)/C(=C\c3ccc(OCCOc4cccc(OC)c4)c(OC)c3)C2=O)cc1`: 24 µM; `O=C1NC(=O)N(c2ccc(Cl)cc2)C(=O)/C1=C/Nc1cccc(O)c1`: 80 µM.

The values above are taken from ChEMBL document CHEMBL1667849, “Identification of small molecular inhibitors for Ero1p by structure-based virtual screening” (Bioorg Med Chem Lett, 2011).
